Assay results reported in patent US20190060330A1, “APPLICATION OF 4-HYDROXY SALICYLANILIDE IN PREPARATION OF ANTI-MYELOMA OR ANTI-LYMPHOMA DRUGS” (priority 2016, published 2019).
Values joined by “and” are separate entries in the source; they are usually repeats but may differ in a detail not shown here. Equal values may be shown once. “Also recorded” adds a separate entry of the source.

Columns and labels:
OCI-MY5 cells = test: CCK8 cytotoxicity, OCI-MY5 multiple myeloma cells; format: cell-based; conditions: Homo sapiens, 72 h
Experimental: (§1) (1) Cell lines: human multiple myeloma cells (H929 cells, OPM2 cells, U266 cells, OCI-MY5 cells, RPMI 8266 cells) (from ATCC of USA. The cells were passaged and preserved in the applicant's laboratory), were cultured in a 1640 culture medium (containing 10% fetus bovine serum).
(§2) The cells were cultured in 1640 medium (containing 10% fetal bovine serum, pH 7.2) supplemented with 2 mmol/L glutamine. The cells were cultured in a cell culture incubator at 37° C., 5% CO2.
(§3) A single-cell suspension of human multiple myeloma cells (H929 cells, OPM2 cells, U266 cells, OCI-MY5 cells, RPMI 8266 cells) was taken for cell counting, and the cell concentration was adjusted to 2×10^5 cells/mL. 95 μL of the above cell suspension was added into each well of a 96-well culture plate, and then 5 μL of the drug prepared with the medium was added at different concentrations, while the same volume of culture medium was added in the control group. Three parallel wells were set in each group. The plate was subjected to continuous culture for 72 h. 2 hours before the end of the culture, 10 μL of CCK8 reagent was added into each well, and the plate was continued to culture in a CO2 incubator. After 2 hours, the OD value of each well at 450 nm was detected by an automatic microplate reader. […]

[1] = molecular target: T1, Ribonucleotide reductase (RR) (Homo sapiens, UniProt P31350); conditions: shown in studies; cited from earlier work
T1 sequence (P31350 1-389): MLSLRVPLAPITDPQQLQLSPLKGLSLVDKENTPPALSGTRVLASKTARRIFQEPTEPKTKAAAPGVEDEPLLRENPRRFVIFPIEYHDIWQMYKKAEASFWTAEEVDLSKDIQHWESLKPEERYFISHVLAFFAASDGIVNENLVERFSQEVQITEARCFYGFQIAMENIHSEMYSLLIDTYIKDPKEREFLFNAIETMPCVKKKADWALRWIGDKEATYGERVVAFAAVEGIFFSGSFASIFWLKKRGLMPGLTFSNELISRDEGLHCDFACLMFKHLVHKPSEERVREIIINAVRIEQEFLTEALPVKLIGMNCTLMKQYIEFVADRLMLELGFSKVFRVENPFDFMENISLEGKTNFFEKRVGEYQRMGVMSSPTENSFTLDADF

OPM2 cells = test: CCK8 cytotoxicity, OPM2 multiple myeloma cells; format: cell-based; conditions: Homo sapiens, OPM-2, 72 h
Experimental: as §1, §2, §3

U2932 cells = test: CCK8 cytotoxicity, U2932 lymphoma cells; format: cell-based; conditions: Homo sapiens, 72 h
Experimental: (§4) A single-cell suspension of human multiple myeloma cells (H929 cells, OPM2 cells, U266 cells, OCI-MY5 cells, RPMI 8266 cells) was taken for cell counting, and the cell concentration was adjusted to 2×10^5 cells/mL. 95 μL of the above cell suspension was added into each well of a 96-well culture plate, and then 5 μL of the drug prepared with the medium was added at different concentrations, while the same volume of culture medium was added in the control group. Three parallel wells were set in each group. The plate was subjected to continuous culture for 72 h. 2 hours before the end of the culture, 10 μL of CCK8 reagent was added into each well, and the plate was continued to culture in a CO2 incubator. After 2 hours, the OD value of each well at 450 nm was detected by an automatic microplate reader. Cell viability and inhibition rate were calculated: cell viability (%)=(OD mean of experimental well/OD mean of control well)×100%. Cell inhibition rate (%)=100%−cell viability (%). The fitting function was used to determine the IC50 of the drug concentration when the cell growth was inhibited by 50%. The experiment was in triplicate.
(§5) Cell lines: human lymphoma cells (SUDHL-4 cells, OCI-LY1 cells, OCI-LY8 cells, DB cells, NU-DUL-1 cells, U2932 cells, TMD8 cells)(from ATCC. USA. The cells were passaged and preserved in the applicant's laboratory). IMDM (Gibco Co., USA). […]

H929 cells [2] = test: CCK8 cytotoxicity, H929 multiple myeloma cells; format: cell-based; conditions: Homo sapiens, NCI-H929, 72 h
Experimental: as §1, §2, §3

OCI-LY8 cells [3] = test: Animal experiment against lymphoma: subcutaneous OCI-LY8 tumors in nude mice; format: in vivo, BALB/C nude mice; conditions: 60 mg/kg every other day, caudal vein, 18 days
Experimental: (1) Cell lines: human lymphoma cells (OCI-LY8 cells) (from ATCC, USA. The cells were passaged and preserved in the applicant's laboratory) were cultured in IMDM (containing 10% fetus bovine serum).
(2) Experimental animals: referring to Example 2.
(§6) The IMDM containing 3×10^6 OCI-LY8 cells was injected subcutaneously into the right axilla of the nude mice, and when the tumors grew to a measurable size, the mice were randomly assigned into the control group and the administration group. The nude mice in the administration group were injected through caudal vein with 4-hydroxy salicylanilide at 60 mg/kg ever other day. The nude mice in the control group were injected with the same volume of solvent (200 μL, 5% DMSO+4% castor oil+91% normal saline). The tumor sizes were measured every two days (measuring the length and width of the tumor, tumor volume=4π/3×(width/2)^2×(length/2)). The mice were sacrificed after a 18-day administration and the tumors were taken for taking photos.

U266 cells = test: CCK8 cytotoxicity, U266 multiple myeloma cells; format: cell-based; conditions: Homo sapiens, U-266, 72 h
Experimental: as §1, §2, §3

DB cells = test: CCK8 cytotoxicity, DB lymphoma cells; format: cell-based; conditions: Homo sapiens, 72 h
Experimental: as §4, §5

RPMI 8266 cells = test: CCK8 cytotoxicity, RPMI 8266 multiple myeloma cells; format: cell-based; conditions: Homo sapiens, RPMI8266, 72 h
Experimental: as §1, §2, §3

H929 cells [4] = test: Animal experiment for multiple myeloma: subcutaneous H929 tumors in nude mice; format: in vivo, BALB/C nude mice; conditions: for Tumor volume, individual mice No. 1-4 / Tumor volume, mean: caudal vein
Experimental: (1) Cell line: human multiple myeloma cells (H929 cells) (from ATCC, USA. The cells were passaged and preserved in the applicant's laboratory), were cultured in a 1640 culture medium (containing 10% fetus bovine serum).
(2) Experimental animals: Male BALB/C nude mice (4-6 week old, purchased from Shanghai Sippr-BK laboratory animal Co. Ltd), were housed in an SPF condition (Center Laborotory Animal Room, Shanghai Tenth People's Hospital).
The cells were cultured in 1640 a 1640 culture medium (containing 10% fetus bovine serum, pH 7.2) supplemented with 2 mmol/L glutamine. The resultant was cultured in a incubator at 37° C. under 5% CO2 environment.
as §6, with “1640 medium” for “IMDM”, “3.5×10^6 H929” for “3×10^6 OCI-LY8”, “50” for “60”, “and 100 mg/kg per” for “ever other”, “volume=0.5×(width)^2×length).” for “volume=4π/3×(width/2)^2×(length/2)).”, “22-day” for “18-day”

OCI-LY8 cells [5] = test: CCK8 cytotoxicity, OCI-LY8 lymphoma cells; format: cell-based; conditions: Homo sapiens, 72 h
Experimental: as §4, §5

SUDHL-4 cells = test: CCK8 cytotoxicity, SUDHL-4 lymphoma cells; format: cell-based; conditions: Homo sapiens, SU-DHL-4, 72 h
Experimental: as §4, §5

NU-DUL-1 cells = test: CCK8 cytotoxicity, NU-DUL-1 lymphoma cells; format: cell-based; conditions: Homo sapiens, 72 h
Experimental: as §4, §5

TMD8 cells = test: CCK8 cytotoxicity, TMD8 lymphoma cells; format: cell-based; conditions: Homo sapiens, 72 h
Experimental: as §4, §5

OCI-LY1 cells = test: CCK8 cytotoxicity, OCI-LY1 lymphoma cells; format: cell-based; conditions: Homo sapiens, 72 h
Experimental: as §4, §5

## O=C(Nc1ccc(O)cc1)c1ccccc1O
OCI-MY5 cells
  IC50: 211 µM
[1]
  Inhibition of Ribonucleotide reductase (in words): inhibitor
OPM2 cells
  IC50: 84 µM
U2932 cells
  IC50: 156 µM
H929 cells [2]
  IC50: 179 µM
OCI-LY8 cells [3]
  Inhibition of growth of lymphoma in nude mice (in words): effectively inhibit the growth of lymphoma
U266 cells
  IC50: 271 µM
DB cells
  IC50: 178 µM
RPMI 8266 cells
  IC50: 170 µM
H929 cells [4]; 50 mg/kg per day, day 0
  Tumor volume, individual mice No. 1-4: 0.08 cm^3 (2×) and 0.11 cm^3 and 0.10 cm^3
  Tumor volume, mean: 0.10 cm^3
H929 cells [4]; 50 mg/kg per day, day 2
  Tumor volume, individual mice No. 1-4: 0.15 cm^3 (2×) and 0.17 cm^3 and 0.11 cm^3
  Tumor volume, mean: 0.15 cm^3
H929 cells [4]; 50 mg/kg per day, day 4
  Tumor volume, individual mice No. 1-4: 0.24 cm^3 and 0.25 cm^3 and 0.22 cm^3 and 0.14 cm^3
  Tumor volume, mean: 0.21 cm^3
H929 cells [4]; 50 mg/kg per day, day 6
  Tumor volume, individual mice No. 1-4: 0.38 cm^3 (2×) and 0.30 cm^3 and 0.27 cm^3
  Tumor volume, mean: 0.33 cm^3
H929 cells [4]; 50 mg/kg per day, day 8
  Tumor volume, individual mice No. 1-4: 0.58 cm^3 and 0.50 cm^3 and 0.37 cm^3 (2×)
  Tumor volume, mean: 0.45 cm^3
H929 cells [4]; 50 mg/kg per day, day 10
  Tumor volume, individual mice No. 1-4: 0.77 cm^3 and 0.63 cm^3 and 0.64 cm^3 and 0.49 cm^3
  Tumor volume, mean: 0.63 cm^3
H929 cells [4]; 50 mg/kg per day, day 12
  Tumor volume, individual mice No. 1-4: 0.99 cm^3 and 0.78 cm^3 and 0.80 cm^3 and 0.74 cm^3
  Tumor volume, mean: 0.83 cm^3
H929 cells [4]; 50 mg/kg per day, day 14
  Tumor volume, individual mice No. 1-4: 1.20 cm^3 and 1.15 cm^3 and 0.97 cm^3 and 1.03 cm^3
  Tumor volume, mean: 1.09 cm^3
H929 cells [4]; 50 mg/kg per day, day 16
  Tumor volume, individual mice No. 1-4: 1.53 cm^3 and 1.47 cm^3 and 1.31 cm^3 and 1.35 cm^3
  Tumor volume, mean: 1.41 cm^3
H929 cells [4]; 50 mg/kg per day, day 18
  Tumor volume, individual mice No. 1-4: 2.08 cm^3 and 1.81 cm^3 and 1.54 cm^3 and 1.71 cm^3
  Tumor volume, mean: 1.79 cm^3
H929 cells [4]; 50 mg/kg per day, day 20
  Tumor volume, individual mice No. 1-4: 2.59 cm^3 and 2.22 cm^3 and 1.77 cm^3 and 2.12 cm^3
  Tumor volume, mean: 2.17 cm^3
H929 cells [4]; 50 mg/kg per day, day 22
  Tumor volume, individual mice No. 1-4: 3.39 cm^3 and 2.44 cm^3 and 2.19 cm^3 and 2.89 cm^3
  Tumor volume, mean: 2.72 cm^3
H929 cells [4]; 100 mg/kg per day, day 0
  Tumor volume, individual mice No. 1-4: 0.10 cm^3 and 0.08 cm^3 and 0.04 cm^3 and 0.07 cm^3
  Tumor volume, mean: 0.07 cm^3
H929 cells [4]; 100 mg/kg per day, day 2
  Tumor volume, individual mice No. 1-4: 0.12 cm^3 and 0.09 cm^3 and 0.08 cm^3 (2×)
  Tumor volume, mean: 0.09 cm^3
H929 cells [4]; 100 mg/kg per day, day 4
  Tumor volume, individual mice No. 1-4: 0.13 cm^3 (2×) and 0.14 cm^3 and 0.10 cm^3
  Tumor volume, mean: 0.13 cm^3
H929 cells [4]; 100 mg/kg per day, day 6
  Tumor volume, individual mice No. 1-4: 0.17 cm^3 (2×) and 0.15 cm^3 and 0.13 cm^3
  Tumor volume, mean: 0.16 cm^3
H929 cells [4]; 100 mg/kg per day, day 8
  Tumor volume, individual mice No. 1-4: 0.26 cm^3 and 0.20 cm^3 and 0.25 cm^3 and 0.17 cm^3
  Tumor volume, mean: 0.22 cm^3
H929 cells [4]; 100 mg/kg per day, day 10
  Tumor volume, individual mice No. 1-4: 0.39 cm^3 and 0.23 cm^3 (2×) and 0.31 cm^3
  Tumor volume, mean: 0.29 cm^3
H929 cells [4]; 100 mg/kg per day, day 12
  Tumor volume, individual mice No. 1-4: 0.53 cm^3 and 0.31 cm^3 and 0.39 cm^3 and 0.25 cm^3
  Tumor volume, mean: 0.37 cm^3
H929 cells [4]; 100 mg/kg per day, day 14
  Tumor volume, individual mice No. 1-4: 0.77 cm^3 and 0.42 cm^3 and 0.44 cm^3 and 0.27 cm^3
  Tumor volume, mean: 0.47 cm^3
H929 cells [4]; 100 mg/kg per day, day 16
  Tumor volume, individual mice No. 1-4: 0.93 cm^3 and 0.49 cm^3 and 0.50 cm^3 and 0.32 cm^3
  Tumor volume, mean: 0.56 cm^3
H929 cells [4]; 100 mg/kg per day, day 18
  Tumor volume, individual mice No. 1-4: 1.20 cm^3 and 0.57 cm^3 (2×) and 0.31 cm^3
  Tumor volume, mean: 0.66 cm^3
H929 cells [4]; 100 mg/kg per day, day 20
  Tumor volume, individual mice No. 1-4: 1.27 cm^3 and 0.63 cm^3 and 0.65 cm^3 and 0.34 cm^3
  Tumor volume, mean: 0.72 cm^3
H929 cells [4]; 100 mg/kg per day, day 22
  Tumor volume, individual mice No. 1-4: 1.39 cm^3 and 0.71 cm^3 and 0.80 cm^3 and 0.40 cm^3
  Tumor volume, mean: 0.82 cm^3
H929 cells [4]; H929 tumors in nude mice, 50 and 100 mg/kg per day, 22 days, dose-dependent, P<0.01 at day 22
  Inhibition of tumor growth in animals (in words): significantly inhibit the tumor growth; also recorded: effective in inhibiting the growth of multiple myeloma
OCI-LY8 cells [5]
  IC50: 76 µM
SUDHL-4 cells
  IC50: 73 µM
NU-DUL-1 cells
  IC50: 188 µM
TMD8 cells
  IC50: 164 µM
OCI-LY1 cells
  IC50: 117 µM
